Reference: patent US20080020385A1, “Use Of A Genetic Modification In The Human Gnaq Gene For Predicting Risk Of Disease, The Course Of Disease, And Reaction To Treatments” (priority 2004, published 2008)

What was measured:
skin blood circulation = assay: Change of skin blood circulation after injection of vasoconstrictors under the skin; format: in vivo; conditions: injected under the skin of human individuals, by GC(-909/-908)TT genotype
Description: As an example for the general usability of the GNAQ GC(−909/−908)TT polymorphism to predict drug actions, the vasoconstrictors angiotensin II, noradrenaline or endothelin were injected under the skin of human individuals, and the following change of blood circulation was recorded (FIG. 18).

human adipocytes = assay: Inhibition of isoprenaline-induced lipolysis (glycerol release) in human adipocyte cultures; format: cell-based; conditions: human adipocytes ex vivo, by GC(-909/-908)TT genotype
Text: The inhibiting effect of insulin on lipolysis was studied in human adipocyte cultures. For this, lipolysis was induced ex vivo in human adipocytes by isoprenaline, and the inhibiting effect of insulin was studied by adding insulin to the cultures. Lipolysis was quantified by glycerol release (Hauner et al., 2002). […] This coincides with the observation of an increased gene expression of Gq in this genotype.

GNAQ promoter = assay: SEAP reporter assay of GNAQ promoter construct -798/+89 (GC or TT genotype) in stimulated HEK cells; format: cell-based, human; conditions: construct -798/+89, stimulation with 10 nM angiotensin II, p<0.05
Text: For functional detection of a modified promoter activity in relation to specific genotypes, various fragments of the promoter with the GC or the TT genotype were cloned into the pSEAP vector to quantify the promoter activity after expression of the vector in HEK cells in a so-called reporter assay (FIG. 5). For this assay, constructs are cloned before a gene encoding the secreted alkaline phosphatase (SEAP). If the construct has promoter activity, the SEAP gene will be transcribed more, and the increased secretion of alkaline phosphatase into the cell culture medium can be measured. […] Since the polymorphism is located in this region (−697/−695 relative from the transcription starting point) showing the highest reporter activity, and furthermore a transcription factor binding site is influenced by the nucleic acid exchange, it is now studied if stimulation of HEK cells has an effect on the reporter activity of these constructs. For this, construct −798/+89 was transfected into HEK cells, together with either the GC(−909/−908) or the TT(−909/−908) polymorphism, and the cells were stimulated with serum or angiotensin II (FIG. 6). […] In order to verify if this regulation also occurs in vivo, Gαq expression was analyzed on mRNA level by real time-PCR.

Row | Compound | reduction of skin blood circulation (skin blood circulation) | inhibiting effect on isoprenaline-induced lipolysis (glycerol release) (human adipocytes) | promoter activity (secreted alkaline phosphatase), GC genotype compared to TT genotype (GNAQ promoter)
1 | NC[C@H](O)c1ccc(O)c(O)c1 [noradrenaline] | reduction of skin blood circulation is highest for the GC/GC genotype |  | 
2 | insulin |  | inhibiting insulin effect was strongest with adipocytes from individuals with GCGC genotype | 
3 | CC[C@H](C)[C@H](NC(=O)[C@H](CC(=O)O)NC(=O)[C@H](CC(C)C)NC(=O)[C@H](Cc1c[nH]cn1)NC(=O)[C@@H]1CSSC[C@H](N)C(=O)N[C@@H](CO)C(=O)N[C@H]2CSSC[C@H](NC(=O)[C@H](CCC(=O)O)NC(=O)[C@H](CCCCN)NC(=O)[C@H](CC(=O)O)NC(=O)[C@H](CCSC)NC(=O)[C@H](CC(C)C)NC(=O)[C@H](CO)NC(=O)[C@H](CO)NC2=O)C(=O)N[C@@H](C(C)C)C(=O)N[C@@H](Cc2ccc(O)cc2)C(=O)N[C@@H](Cc2ccccc2)C(=O)N1)C(=O)N[C@H](C(=O)N[C@@H](Cc1c[nH]c2ccccc12)C(=O)O)[C@@H](C)CC [endothelin] | reduction of skin blood circulation is highest for the GC/GC genotype |  | 
4 | angiotensin II (DRVYIHPF; Angiotensin-2; UniProt P01019 25-32, looked up) [hormone, vasoconstrictor] | reduction of skin blood circulation is highest for the GC/GC genotype |  | two to four times increased promoter activity compared to the TT genotype
